Test results as given in publication PMC5797166, “A multidrug ABC transporter with a taste for GTP” (Scientific Reports, 2018).

Key:
[1] = biological target: T1, BmrC/BmrD (Bacillus subtilis, UniProt O07549+O07550); test: fluorescence transport assay, inside-out E. coli membrane vesicles; format: biochemical; conditions: 2 mM ATP or GTP, Walker-A K/A double mutant as control
T1 construct: full-length heterodimer overexpressed in E. coli, inside-out membrane vesicles

[2] = biological target: T2, PatA/PatB (Streptococcus pneumoniae, UniProt Q8DN70+Q8DN72); test: coupled NADH oxidation assay, GTPase; format: biochemical; conditions: nanodiscs of S. pneumoniae lipids, 4 mM GTP, 2 mM MgCl2, pH 7.4
T2 construct: gene ABC-NP; models PatA 1-564, PatB 1-603

[3] = tested on: Nc1nc2c(ncn2[C@@H]2O[C@H](COP(=O)(O)OP(=O)(O)OP(=O)(O)O)[C@@H](O)[C@H]2O)c(=O)[nH]1; test: purified protein; format: biochemical, Streptococcus pneumoniae; conditions: proteoliposomes of E. coli lipids, 10 mM MgCl2, pH 8, 37 °C, cooperative fit, nH 1.74

T1 sequence (O07550 whole entry): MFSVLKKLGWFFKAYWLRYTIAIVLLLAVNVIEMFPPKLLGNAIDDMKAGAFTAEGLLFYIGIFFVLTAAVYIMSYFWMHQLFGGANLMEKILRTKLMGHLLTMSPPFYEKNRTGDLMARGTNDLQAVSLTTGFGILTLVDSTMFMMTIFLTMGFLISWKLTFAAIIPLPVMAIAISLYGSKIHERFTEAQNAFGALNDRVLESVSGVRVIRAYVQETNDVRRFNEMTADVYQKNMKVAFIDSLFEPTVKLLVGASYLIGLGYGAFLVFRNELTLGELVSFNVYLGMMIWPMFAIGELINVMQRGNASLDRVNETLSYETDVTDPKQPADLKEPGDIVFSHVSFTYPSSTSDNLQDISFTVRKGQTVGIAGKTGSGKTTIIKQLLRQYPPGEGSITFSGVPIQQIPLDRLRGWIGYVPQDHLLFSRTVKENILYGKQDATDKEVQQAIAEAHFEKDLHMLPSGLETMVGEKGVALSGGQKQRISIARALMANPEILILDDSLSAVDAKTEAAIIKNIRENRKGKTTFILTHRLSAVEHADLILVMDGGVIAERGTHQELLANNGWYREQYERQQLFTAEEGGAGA
T1 sequence (O07549 whole entry): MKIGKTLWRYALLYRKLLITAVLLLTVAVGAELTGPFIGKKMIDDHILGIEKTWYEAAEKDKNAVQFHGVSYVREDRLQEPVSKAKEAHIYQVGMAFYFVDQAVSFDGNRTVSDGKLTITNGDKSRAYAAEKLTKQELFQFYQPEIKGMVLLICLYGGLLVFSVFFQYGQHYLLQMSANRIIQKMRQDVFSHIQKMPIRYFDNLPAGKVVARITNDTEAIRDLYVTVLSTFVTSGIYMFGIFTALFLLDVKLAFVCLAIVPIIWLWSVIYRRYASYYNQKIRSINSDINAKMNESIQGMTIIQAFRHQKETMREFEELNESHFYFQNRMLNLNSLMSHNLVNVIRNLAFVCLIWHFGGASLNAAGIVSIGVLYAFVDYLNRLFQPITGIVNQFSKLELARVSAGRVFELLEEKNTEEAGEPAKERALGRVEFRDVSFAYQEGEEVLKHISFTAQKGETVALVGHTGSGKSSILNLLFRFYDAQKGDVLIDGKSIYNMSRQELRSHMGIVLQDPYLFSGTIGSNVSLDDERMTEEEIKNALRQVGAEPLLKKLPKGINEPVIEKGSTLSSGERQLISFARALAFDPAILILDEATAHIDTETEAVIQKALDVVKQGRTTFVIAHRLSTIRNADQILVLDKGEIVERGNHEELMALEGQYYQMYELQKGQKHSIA
T2 sequence (Q8DN70 entry or part of it): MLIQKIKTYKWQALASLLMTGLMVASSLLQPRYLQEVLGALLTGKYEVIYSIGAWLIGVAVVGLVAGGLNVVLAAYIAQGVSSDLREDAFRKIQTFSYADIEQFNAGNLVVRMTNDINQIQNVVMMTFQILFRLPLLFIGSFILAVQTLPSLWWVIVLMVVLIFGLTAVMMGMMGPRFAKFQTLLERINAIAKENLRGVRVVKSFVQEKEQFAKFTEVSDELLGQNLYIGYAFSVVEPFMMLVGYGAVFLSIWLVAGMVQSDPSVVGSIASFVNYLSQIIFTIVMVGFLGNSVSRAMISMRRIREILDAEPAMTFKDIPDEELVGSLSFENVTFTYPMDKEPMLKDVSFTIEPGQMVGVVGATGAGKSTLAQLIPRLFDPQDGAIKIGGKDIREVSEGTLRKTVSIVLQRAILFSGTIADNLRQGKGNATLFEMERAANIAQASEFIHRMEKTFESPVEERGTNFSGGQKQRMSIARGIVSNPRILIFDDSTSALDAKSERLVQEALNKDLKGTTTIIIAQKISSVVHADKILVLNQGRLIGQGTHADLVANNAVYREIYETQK
T2 sequence (Q8DN72 entry or part of it): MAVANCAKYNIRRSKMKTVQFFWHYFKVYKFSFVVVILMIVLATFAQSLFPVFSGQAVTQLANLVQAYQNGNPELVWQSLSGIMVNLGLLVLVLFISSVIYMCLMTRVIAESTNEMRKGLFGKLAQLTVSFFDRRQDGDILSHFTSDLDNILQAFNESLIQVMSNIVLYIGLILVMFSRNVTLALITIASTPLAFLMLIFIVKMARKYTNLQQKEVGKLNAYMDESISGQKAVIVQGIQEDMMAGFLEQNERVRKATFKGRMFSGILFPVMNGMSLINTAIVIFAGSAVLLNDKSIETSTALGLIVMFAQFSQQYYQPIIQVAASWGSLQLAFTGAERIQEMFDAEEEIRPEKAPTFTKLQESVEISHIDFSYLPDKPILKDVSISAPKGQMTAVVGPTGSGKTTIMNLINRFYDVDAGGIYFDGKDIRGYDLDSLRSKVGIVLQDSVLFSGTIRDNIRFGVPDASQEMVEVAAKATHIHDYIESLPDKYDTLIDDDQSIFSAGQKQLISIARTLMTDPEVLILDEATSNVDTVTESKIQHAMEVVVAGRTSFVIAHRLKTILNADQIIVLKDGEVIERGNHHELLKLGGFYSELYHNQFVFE

CCOc1ccc(-c2nc3ccc(-c4nc5ccc(N6CCN(C)CC6)cc5[nH]4)cc3[nH]2)cc1 [Hoechst 33342, 2′-(4-ethoxyphenyl)-5-(4-methyl-1-piperazinyl)-2,5′-bis-1H-benzimidazole]
fluorescence transport assay, inside-out E. coli membrane vesicles ([1]; 1 µM Hoechst, 2 mM MgCl2, pH 8.0, 25 °C): BmrC/BmrD behaves as a conventional ABC transporter being more active in the presence of ATP

COc1cccc2c1C(=O)c1c(O)c3c(c(O)c1C2=O)C[C@@](O)(C(=O)CO)C[C@@H]3O[C@H]1C[C@H](N)[C@H](O)[C@H](C)O1 [doxorubicin]
fluorescence transport assay, inside-out E. coli membrane vesicles ([1]; 2 µM doxorubicin, 2 mM MgCl2, pH 8.0, 25 and 37 °C): ATP was the preferred energy substrate for BmrC/BmrD at both temperatures

[O]=[V]([OH])([OH])[OH] [orthovanadate]
% inhibition at 4 mM [2]: 94%

PatA/PatB (Streptococcus pneumoniae R6)
Km [3]: 2640 ± 460 µM
